Where a name gives a salt, the structure may show the parent alone. Read-outs that look alike come from different tables or passages of the source.
Experiments:
[1] = biological target: T1, 5-HT2 receptors in A7r5 rat vascular smooth muscle cells (Rattus norvegicus, UniProt P14842); experiment: 5-HT2 functional assay: [Ca2+]i mobilization (FLIPR); assay type: cell-based; conditions: for Emax: read-out: Efficacy (Emax, %)
T1 construct: endogenous in cells; host or cells: A7r5 rat vascular smooth muscle cells
T1 sequence (P14842 whole entry): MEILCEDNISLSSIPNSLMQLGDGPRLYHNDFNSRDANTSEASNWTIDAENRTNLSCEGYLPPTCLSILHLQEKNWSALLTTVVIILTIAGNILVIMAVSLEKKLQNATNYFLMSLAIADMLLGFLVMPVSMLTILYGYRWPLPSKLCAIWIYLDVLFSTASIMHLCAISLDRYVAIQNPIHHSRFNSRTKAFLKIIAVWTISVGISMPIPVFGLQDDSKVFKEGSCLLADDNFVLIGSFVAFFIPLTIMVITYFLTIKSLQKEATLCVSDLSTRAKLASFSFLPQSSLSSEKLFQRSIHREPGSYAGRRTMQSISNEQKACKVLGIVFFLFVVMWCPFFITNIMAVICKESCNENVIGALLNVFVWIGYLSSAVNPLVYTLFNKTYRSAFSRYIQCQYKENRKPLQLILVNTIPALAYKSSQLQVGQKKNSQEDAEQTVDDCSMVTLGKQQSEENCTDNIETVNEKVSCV
Method: 5-HT2 Functional Assay: [Ca^2+]i Mobilization
The receptor-mediated mobilization on intracellular calcium ([Ca^2+]i) was studied using the Fluorescence Imaging Plate Reader (FLIPR) instrument. Rat vascular smooth muscle cells, A7r5, were grown in a normal media of DMEM/10% FBS and 10 μg/mL gentamycin. Confluent cell monolayers were trypsinized, pelleted, and re-suspended in normal media. Cells were seeded in a 50 μL volume at a density of 20,000 cells/well in a black wall, 96-well tissue culture plate and grown for 2 days.
On the day of the experiment, one vial of FLIPR Calcium Assay Kit dye was re-suspended in 50 mL of a FLIPR buffer consisting of Hank's Balanced Salt Solution (HBSS), 20 mM HEPES, and 2.5 mM probenecid, pH 7.4. Cells were loaded with the calcium-sensitive dye by addition of an equal volume (50 μL) to each well of the 96-well plate and incubated with dye for 1 h at 23° C.
Compounds were diluted 1:50 in 20% DMSO/20% ethanol. For “hit” screening, compounds were further diluted 1:10 in FLIPR buffer and tested at a final concentration of 10 μM.
The compound plate and cell plate were placed in the FLIPR instrument. At the beginning of an experimental run, a signal test was performed to check the basal fluorescence signal from the dye-loaded cells and the uniformity of the signal across the plate. The basal fluorescence was adjusted between 8000-12000 counts by modifying the exposure time, the camera F-stop, or the laser power. Instrument settings for a typical assay were the following: laser power 0.3-0.6 W, camera F-stop F/2, and exposure time 0.4 sec. An aliquot (25 μL) of the test compound was added to the existing 100 μL dye-loaded cells at a dispensing speed of 50 μL/sec. Fluorescence data were collected in real-time at 1.0 sec intervals for the first 60 secs and at 6.0 sec intervals for an additional 120 secs.

[2] = biological target: brain 5-HT2 receptors (Rattus norvegicus, UniProt P14842); experiment: 5-HT2 receptor binding assay ([125I]DOI competition); conditions: competition for [125I]DOI binding, rat or human cerebral cortex homogenates
brain 5-HT2 receptors, sequence (P14842 whole entry): as above
Method: 5-HT2 Receptor Binding Assay
The assay mixture is incubated for 1 hour at 23° C. in polypropylene tubes and the assays terminated by rapid vacuum filtration over Whatman GF/B glass fiber filters previously soaked in 0.3% polyethyleneimine using ice-cold buffer. Test compounds (at different concentrations) are substituted for methiothepin. Filter-bound radioactivity is determined by scintillation spectrometry on a beta counter. The data are analyzed using a non-linear, iterative curve-fitting computer program [Trends Pharmacol. Sci., 16, 413 (1995)] to determine the compound affinity parameter. The concentration of the compound needed to inhibit the [^125I]DOI binding by 50% of the maximum is termed the IC50 or Ki value.

[3] = A7r5 cells, FLIPR, percentage of maximum 5-HT-induced response
[4] = A7r5 cells, FLIPR, read-out: EC50, nM (5-HT2 functional, [Ca2+]i mobilization)

Work on `CC(N)Cn1ncc2c1-c1ccc(O)cc1C2` (stereo not shown) [Example 5, 1-(2-Aminopropyl)-1,4-dihydro-indeno[1,2-c]pyrazol-6-ol] yielded an Emax [1, 3] of 64% and an EC50 [1, 4] of 328 nM.
`NCCc1c[nH]c2ccc(O)cc12` [Example 5-HT, 5-Hydroxytryptamine, reference compound] showed an Emax [1, 3] of 107%.
`CC(N)Cn1ncc2c1-c1cc(O)ccc1CC2` (stereo not shown) [Example 2, 1-(2-Aminopropyl)-4,5-dihydro-1H-benzo[g]indazol-8-ol Dihydrochloride] gave an Emax [1, 3] of 46% and an EC50 [1, 4] of 103 nM.
In the case of `CC(N)Cn1ncc2ccc3cc(O)ccc3c21` (stereo not shown) [Example 4, 1-(2-Aminopropyl)-2H-benzo[g]indazol-7-ol], the EC50 [1] is reported as 211 nM and the Emax [1, 3] is reported as 79%.
`COc1cc(CC(C)N)c(OC)cc1I` (stereo not shown) [DOI, reference compound] was tested, and the IC50 [2] was 0.33 nM, the “Efficacy (Emax, %)” value [1, 3] was 31% and the EC50 [1, 4] was 30.2 nM.

From patent US6933392B2, “Hydroxy substituted fused naphthyl-azoles and fused indeno-azoles and their use for the treatment of glaucoma” (Alcon, Inc., priority 2001, dated 2005)
